For one test, the system named is ddY male mice. In words: Antianoxia effect: duration of gasping after beheading in mice. It is filed as in vivo, mouse. Conditions: 0.3 mg/kg subcutaneous, 30 minutes before beheading, Mean ± S.D. As for the experimental part: Test substance 1 of 0.3 mg/kg in 10 mL/kg of vehicle was subcutaneously administered to ddY male mice (5 weeks old, weight: 27-30 g). The control group received the vehicle. Thirty minutes after the administration, the mice were beheaded with guillotine. Duration of gasping shown after beheading was measured.

Test [1] relates to male Wistar rats. The test can be described thus: Water-immersion restraint stress induced ulcer model. The format is in vivo, rat. To be noted: for Ulcer Coefficient: Mean ± S.E. As for the experimental part:
(§1) Effects on acute ulcer was determined by means of water-immersion restraint stress induced ulcer model and indomethacin induced ulcer model.
(§2) Test substance 1 was orally administered to male Wistar rats (weight: 180-210 g) that had been fasted for 24 hours. In the water-immersion restraint stress induced ulcer model, 10 minutes after the oral administration of test substance 1, the rats were bound in a stress cage and immersed in water at 23° C. up to the level of their chest xiphisternums. Six hours after the immersion, the animals were killed by cervical dislocation. In the indomethacin induced ulcer model, immediately after the oral administration of test substance 1 or 2, indomethacin 10 mg/kg was orally administered. Five hours after the administration, the animals were killed by cervical dislocation. The stomachs removed from the animals were fixed with 1% formalin and then dissected along the greater curvatures. The major axis (mm) of each ulcer formed in the stomach was measured. The major axes of the ulcers in each animal were totaled, which were expressed as ulcer coefficients. Based on the ulcer coefficients of the control group and those of the groups receiving test substances, the ulcer inhibitory rates were calculated.

A further test deals with male white rabbit. The test can be described thus: Amount of lacrimal fluid and chloride ion concentration in lacrimal fluid in rabbit. It is filed as in vivo. Conditions: 0.001% eye drop, 30 μL/eye, two hours after instillation, Mean ± S.E. As for the experimental part: An eye drop composition comprising 0.001% of the test substance 1 was instilled to male white rabbit in the amount of 30 μL/eye. The control group received the same amount of eye drop vehicle. […] Then the amount of lacrimal fluid was measured from the length of wetting area on the paper filter with the scale on it. […] The collected lacrimal fluid was diluted five fold with distilled water and chloride ion concentration in the lacrimal fluid was measured with a chloride counter (CL-7, Hiranuma Sangyo Co. Ltd., Japan). Student's t-test and Wilcoxon's test were used in comparing the control group and the group receiving test substance 1. P values less than 0.05 were considered to be statistically significant.

Test [2] deals with male Wistar rats. The test can be described thus: Antipneumonedema effect, ammonium sulfate induced, in rats. It is filed as in vivo, rat. As for the experimental part:
Test substance 1 of 0.1 or 0.01 mg/kg in 5 mL/kg of vehicle was subcutaneously administered to male Wistar rats (7 weeks old, weight: 200-250 g). The control group received the same amount of the vehicle (physiological Saline). Thirty minutes after the administration, ammonium sulfate […] was administered to the abdominal cavity of the rats. The survival rate at 30 minutes after the administration of ammonium sulfate was calculated. Animals that had survived until 30 minutes after the administration of ammonium sulfate were killed under chloroform, and their lungs were removed to measure the weights. Regarding animals that had been dead by 30 minutes after the administration of ammonium sulfate, their lungs were removed immediately after their death to measure the weights. The lung-weight of the respective groups was compared to the lung-weight of the normal group, which received no ammonium sulfate. Based on the lung-weight measurements, the inhibitory rate of lung-weight increase of the group receiving test substance 1 as compared to that of the control group was calculated.

Test [3] concerns male Wistar rats. The test can be described thus: Indomethacin induced ulcer model. The format is in vivo, rat. Conditions: 2 μg/kg oral. As for the experimental part: as §1, §2
The test system of test [4] is male Wistar rats. The test can be described thus: Amount of intestinal fluid and chloride ion concentration in intestinal fluid in rat. It is filed as in vivo. Conditions: 30 minutes after administration, Mean ± S.E. As for the experimental part:
Test substance 1: 13,14-dihydro-15-keto-16,16-difluoro-prostaglandin E1, which is a ClC-2 channel opener was used. The test substance 1 of 10 or 100 μg/kg in 5 mL/kg of the vehicle was orally administered to male Wistar rats (six weeks old, weight: 180-210 g) that had been fasted for at least 16 hours. The control group received the same volume of the vehicle (0.5% ethanol and 0.01% polysorbate 80 in distilled water). Thirty minutes after the administration, the animals underwent laparotomy under ether anesthesia. The first portion of the duodenum and end portion of the ileum were ligated respectively and the bowel was removed. The intestinal fluid of each animal was collected from the removed bowel and the amount was determined. After the intestinal fluid was centrifuged by 10,000×g for 5 minutes, its supernatant was collected. The chloride ion concentration in the supernatant was measured with a chloride counter (CL-7, Hiranuma Sangyo Co., Ltd.). Dunnett's test was used in comparing the control group and the test groups receiving test substance 1 in each dose. P values less than 0.05 were considered to be statistically significant.

SMILES strings stand for the structures.

Take `CCCCC(F)(F)C(=O)CC[C@H]1[C@H](O)CC(=O)[C@@H]1CCCCCCC(=O)O` [Test Sub. 1, 13,14-dihydro-15-keto-16,16-difluoro-prostaglandin E1]: the “Duration of Gasping” value in the test on ddY male mice was found to be 24.1 ± 1.9. For the same compound, the “Ulcer Inhibitory Rate” value turned out to be 54.3% in the test with male Wistar rats [1] (30 μg/kg oral), 85.3% with male Wistar rats [1] (100 μg/kg oral) and 44% in the test on male Wistar rats [3]. Also, the “Ulcer Coefficient” value in the test with male Wistar rats [1] (30 μg/kg oral) is reported as 13.4 ± 2.0; in the test on male Wistar rats [1] (100 μg/kg oral), 4.3 ± 1.9; in the test on male Wistar rats [3] (Mean ± S.E.) it was 27.9 ± 5.1. For the same compound, the “Chloride Ion Concentration in Lacrimal Fluid” value in the test on male white rabbit is recorded as 152.9 ± 7.7^(##) mEq/L. Moreover, the “Amount of Lacrimal Fluid” value with male white rabbit (Schirmer's Paper) came out at 11.5 ± 0.7 mL. In the test with male Wistar rats [2] (0.01 mg/kg subcutaneous, compared to control group), the “Inhibitory Rate of Lung-weight Increase” value is on record as 47%. In the test with male Wistar rats [2] (0.1 mg/kg subcutaneous, 30 minutes after ammonium sulfate), the “Surviving Rate” value came to 60%. Moreover, the results for the “Amount of Intestinal Fluid” value with male Wistar rats [4] (10 μg/kg oral) and with male Wistar rats [4] (100 μg/kg oral) were 3.3 ± 0.3 mL and 5.3 ± 0.2 mL, respectively. For the same compound, the “Chloride Ion Concentration in Intestinal Fluid” value is 110.1 ± 5.6 mEq/L in the test on male Wistar rats [4] (10 μg/kg oral) and 126.6 ± 2.4 mEq/L in the test on male Wistar rats [4] (100 μg/kg oral).

The values are drawn from patent publication US7732487B2, “Method for treating a disease or condition responsive to opening of C1C-2 channel” (priority 2001, dated 2010).
